From paper PMC4871512, “Drug-Based Lead Discovery: The Novel Ablative Antiretroviral Profile of Deferiprone in HIV-1-Infected Cells and in HIV-Infected Treatment-Naive Subjects of a Double-Blind, Placebo-Controlled, Randomized Exploratory Trial” (PLoS ONE, 2016)

Key:
HIV-1 = assay: Proof-of-concept trial: HIV-1 RNA in plasma of treatment-naive HIV-infected subjects (ICR, ICD); format: in vivo, human; conditions: for period for which the decrease of HIV-1 RNA persists off-drug: 7-day / 17-dose course, responsive cohort; for ICR relative to pre-treatment level: regimen-compliant responsive sub-group (Subjects 1, 5, 20, 24)
Experimental: Cell-free supernatants were used for p24 and HIV-1 RNA measurements. p24 core antigen in the supernatant was quantified by ELISA (Retrotek HIV-1 p24®; ZeptoMetrix Corp.; Buffalo, NY). HIV-1 RNA copy number in the supernatant of PBMC cultures and in plasma of trial subjects enrolled in the exploratory deferiprone trial was determined with a PCR-based and FDA-approved assay (Amplicor HIV-1 Monitor®; Roche Diagnostics Corp.; Indianapolis, IN). For clinical samples, the assay was used per the Standard Specimen Processing Procedure (sensitivity limit 400 copies/ml); for cell culture samples, the assay was used in both the Standard Specimen Processing and the UltraSensitive Specimen Processing Procedure (sensitivity limit 50 copies/ml). If not specified further, the term “log10” designates the amount of HIV-1 RNA in the dimensions [log10 / ml]. The Roche Amplicor HIV-1 DNA Test (Roche Diagnostics Corp.; Indianapolis, IN) was used for detection of HIV-1 DNA with the primer pair SK431/462, which amplifies a highly conserved region of the gag genome of HIV-1 subtype B DNA. […] Apoptotic DNA fragmentation was quantified flow-cytometrically, using a terminal deoxynucleotide transferase dUTP nick end-labeling (TUNEL) assay (APO-BRDU™; Phoenix Flow Systems; San Diego, CA). All experiments and assays were performed at least in duplicate.
Eligible for enrollment were volunteers of both genders, between 18 and 60 years old, healthy or HIV-infected with CD4 count ≥ 300/mm^3, viral load of ≥ 10,000 copies/ml, and absence of active infectious disease; AIDS-defining condition; febrile illness; liver or kidney disease; hypersensitivity to test material; and medication requirement. The protocol involved a screening visit; a pharmacokinetic and antiretroviral study requiring admission to a specialized Phase I research unit for a week of on-drug treatment, with multiple blood draws from a peripheral vein after oral intake of the first deferiprone dose, either 33 mg/kg or 50 mg/kg, and at least three repeat blood draws (first stage of protocol); an off-drug observation period of eight weeks, which comprised at least two repeat visits (second stage of protocol); and an exit visit. Enrollment complied with the applicable standard-of-care specified in the ‘Clinical Guidelines for the Management of HIV & AIDS in Adults and Adolescents’, National Department of Health, Republic of South Africa. Primary parameters included safety and tolerability (e.g. vital signs, laboratory variables, cardiac monitoring by ECG) and antiretroviral activity (e.g. RNA copies of HIV-1). Secondary parameters included pharmacokinetic variables (e.g. peak serum concentration) in serum, drawn from a peripheral vein at fixed times (0, 0.5, 1, 1.5, 2, 3, 4, 6, 9, 12) after the ingestion of the first dose on Day 1 of the study. The concentration of the nonconjugated, chelation-competent form of deferiprone in serum was determined by UV detection at 280 nm, after separation via reversed-phase HPLC under isocratic conditions. The lower limit of deferiprone quantitation was 1.466 μM, or 0.204 μg/ml. HIV-1 RNA was measured as described and used as log10-transformed parameter in all calculations.
26 consecutive subjects were randomly enrolled in the IRB-approved proof-of-concept trial and gave written informed consent to be studied (Supporting Information, S2 Text); recruitment of trial subjects commenced in November 2006 and follow-up terminated in April 2008.

[1] = cited from earlier work
[2] = after 8 weeks off-drug, P = 0.003

Cc1c(O)c(=O)ccn1C [deferiprone, 3-hydroxy-1,2-dimethylpyridin-4-one]
protocol-completing subjects with no viral load change (HIV-1; 99 mg group (33 mg/kg/dose orally three times per day)): 66% | ICR after the one-week treatment (HIV-1; 99 mg group, Subjects 1, 2, 5, achieved threshold and had a viral response): -0.36 log10 | ICR after the one-week treatment (HIV-1; 99 mg group, Subjects 4, 6, 8, did not achieve the ≥150 μM threshold): +0.23 log10 | ICD between threshold-achieving responders and non-achievers (HIV-1; 99 mg group, one-week treatment, P = 0.004): 0.59 log10 | within-subject variability of HIV-1 RNA reached after the one-week treatment (HIV-1; 99 mg/kg group): -0.45 log10 | within-subject variability of HIV-1 RNA reached after the one-week treatment (HIV-1; 150 mg group): -0.53 log10 | protocol-completing subjects with no viral load change (HIV-1; 150 mg group (50 mg/kg/dose orally three times per day)): 25% | ICR after the one-week treatment (HIV-1; 150 mg group, Subjects 20, 22, 24, cmax ≥150 μM): -0.39 log10 | period for which the decrease of HIV-1 RNA persists off-drug (HIV-1): 8 weeks | period for which the decrease of HIV-1 RNA persists off-drug (HIV-1; listed as Deferiprone): at least 8 weeks | off-drug retention of the HIV-1 RNA reduction as multiple of the drug's half-life (HIV-1; 8 weeks off-drug after 17 doses): over 670 times | average level of HIV-1 RNA (HIV-1; 'decrease' cohort, after 4 weeks off-drug): 4.44 log10 | average level of HIV-1 RNA (HIV-1; 'decrease' cohort, after 8 weeks off-drug): 4.52 log10 | average level of HIV-1 RNA (HIV-1; 'decrease' cohort, after 7 days (4.90 log10 initially)): 4.53 log10 | average level of HIV-1 RNA (HIV-1; 'no-decrease' cohort, after 4 weeks off-drug): 4.83 log10 | average level of HIV-1 RNA (HIV-1; 'no-decrease' cohort, after 8 weeks off-drug): 4.70 log10 | average level of HIV-1 RNA (HIV-1; 'no-decrease' cohort, after 7 days (4.53 log10 initially)): 4.74 log10 | ICR after 8 weeks off-drug (HIV-1; DTD 'decrease' cohort): -0.31 log10 | ICR at the end of the first stage (S1, Day 7 vs Day 1) (HIV-1; DTD 'decrease' cohort, N = 6): -0.37 log10 | ICR after 8 weeks off-drug (HIV-1; DTD 'no-decrease' cohort): +0.17 log10 | ICR at the end of the first stage (S1, Day 7 vs Day 1) (HIV-1; DTD 'no-decrease' cohort, N = 5): +0.21 log10 | ICR at the end of 8 weeks off-drug (HIV-1; Group A, cmax ≥150 μM): -0.28 log10 | intra-cohort response (ICR), HIV-1 RNA Day 7 relative to Day 1 (HIV-1; Group A, cmax ≥150 μM on either dosage, N = 7, 7 days on-drug): -0.27 log10 | subjects who achieved the threshold (cmax ≥150 μM) and showed a decline in viral load (HIV-1; Group A, one-week treatment): 6 of the 7 | viral load in the 4 subjects who did not achieve the threshold (HIV-1; Group B, one-week treatment): did not show a decline in viral load | ICR at the end of 8 weeks off-drug (HIV-1; Group B, threshold-failing): +0.24 log10 | change in viral load during the one-week treatment (HIV-1; Subject 19, 150 mg group, cmax 128 μM): +0.02 log10 | ICD Group A vs Group B (HIV-1; [2]): 0.52 log10 | ICD regimen-compliant 'decrease' sub-group vs 'no-decrease' cohort (HIV-1; [2]): 0.61 log10 | ICD 'decrease' vs 'no-decrease' cohort (HIV-1; after 8 weeks off-drug, P = 0.008): 0.48 log10 | intercohort difference (ICD) Group A vs Group B (HIV-1; after one week on-drug): 0.44 log10 | ICD 'decrease' vs 'no-decrease' cohort (HIV-1; end of first stage S1, P = 0.0001): 0.58 log10 | intra-cohort response (ICR), HIV-1 RNA Day 7 relative to Day 1 (HIV-1; human, in vivo): +0.17 log10 | ICR relative to pre-treatment level (HIV-1; after 8 weeks off-drug): -0.38 log10 | ICR relative to pre-treatment level (HIV-1; after 7 days on-drug): -0.40 log10 | half-life in peripheral blood ([1]; human): approximately 2 hour | peak serum level ([1]; in vivo, 65.2 mg/kg): up to 450 µM | difference in peak serum concentration (cmax) between UGT1A6-typed subjects ([1]; in vivo, po): up to 35% | difference in total drug exposure over time (AUC0 - ∞) between UGT1A6-typed subjects ([1]; in vivo, po): 38%
